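Assay format: 96-well plates, 48-hour exposure. TGI is the concentration that stops growth completely.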
test system: 786-0 renal; test: inhibition of tumour cell growth, NCI panel, 48 h

Structure (SMILES)	TGI
CN(Cc1ccccc1)c1cc(=O)n(C)c(=O)[nH]1	> 100 µM
COc1cc2c(cc1OC)[C@H]1CN3CCC[C@H]3C=C1c1ccc(OC)c(O)c1-2	0.0169 µM
C=Cc1ccc(C)[n+](C[Si](C)(C)O[Si](C)(C)C[n+]2cc(C=C)ccc2C)c1	> 100 µM
Oc1[nH]c2ccc(Br)cc2c1N=NC(=S)Nc1ccc(F)cc1	22.4 µM
O=c1[nH]cnc(NC2C=C(CO)C(O)C2O)c1[N+](=O)[O-] (configuration not stated)	> 64.3 µM
CC(=O)OCC1OC(n2cc(I)c(=O)[nH]c2=O)C(OC(C)=O)C(OC(C)=O)C1OC(C)=O (configuration not stated)	> 100 µM
CC(O)CCCOC(c1ccccc1)(c1ccccc1)c1ccccc1 (configuration not stated)	30.3 µM
CC(C(=O)N1C(=O)N(C(=O)C(C)C(O)c2ccccc2)C2CCCCC21)C(O)c1ccccc1 (configuration not stated)	> 100 µM
O=C1NCCS(=O)(=O)N[C@@H](CC2=CC=CCC2)C(=O)N2CCCC12 (some centres not stated)	> 100 µM
CC(C)=CCC/C(C)=C/COC(C)(C)C1=CCC(C)CC1 (configuration not stated) (tested in a mixture with another compound)	> 100 µM
O=[N+]([O-])c1ccc(/C=C/c2cc(-c3ccccc3)nc3ccc4ccccc4c23)cc1	> 100 µM
Cc1cc(-c2nc3ccccc3s2)ccc1NC(=O)[C@@H](N)CCCCN	13.2 µM
CCCCn1cnc2c(c(CC#N)nn2-c2ccccc2)c1=N	> 100 µM
COc1ccc(-c2oc(/C=N/NC(N)=S)c([N+](=O)[O-])c2-c2ccc(OC)c(OC)c2)cc1OC	> 100 µM
COc1c(O)c2c3c(c(C)cc(O)c3c1O)C(=O)C(O)(C(C)(C)C(C)=O)C2=O (configuration not stated)	> 100 µM
Nc1nc(N)c(N=O)c(Nc2ccc(Br)cc2)n1	> 100 µM
O=C(CNc1c(Cl)cccc1Cl)NC1C=Cc2ccc(S(=O)(=O)Nc3c(Cl)cccc3Cl)cc2C1=O (configuration not stated)	> 100 µM
C[C@]12CC[C@@H]3c4ccc(O)cc4CC[C@H]3[C@@H]1C/C(=C\c1ccncc1)[C@@H]2O	80.9 µM
S=C(/N=c1\sc(Nc2ccc(Cl)cc2)nc2sc3c(c12)CCN(N1CCc2c(sc4nc(Nc5ccc(Cl)cc5)s/c(=N\C(=S)Nc5ccc(Cl)cc5)c24)C1)C3)Nc1ccc(Cl)cc1	31.9 µM
O=C(Oc1cc(=O)c(OC(=O)c2ccccc2)co1)c1ccccc1	> 100 µM
CCC1=CC2CN3Cn4c(c(COCc5c6n(c7ccccc57)CN5CC7C=C(CC)C5C6(C(=O)OC)C7)c5ccccc54)C(C(=O)OC)(C2)C13	> 100 µM
O=C(Cc1ccccc1)NN1C(=O)/C(=C\c2ccccc2)SC1=Nc1ccccc1	> 100 µM
COc1ccc(CC2c3c(cc(OC)c(OC)c3OC)CCN2C)cc1OC (configuration not stated)	> 100 µM

test system: T-47D breast; test: inhibition of tumour cell growth, NCI panel, 48 h

Structure (SMILES)	TGI
CN(Cc1ccccc1)c1cc(=O)n(C)c(=O)[nH]1	> 100 µM
COc1cc2c(cc1OC)[C@H]1CN3CCC[C@H]3C=C1c1ccc(OC)c(O)c1-2	0.132 µM
Oc1[nH]c2ccc(Br)cc2c1N=NC(=S)Nc1ccc(F)cc1	35.4 µM
CCOC(=O)C1(C(=O)OCC)COS(=O)OC1	50.8 µM
Cc1ccc([N+](=O)[O-])cc1N=NC(=O)NNc1cc([N+](=O)[O-])ccc1C	> 100 µM
Cc1cc(-c2nc3ccccc3s2)ccc1NC(=O)[C@@H](N)CCCCN	1.14 µM
CCCCn1cnc2c(c(CC#N)nn2-c2ccccc2)c1=N	> 100 µM
C[C@]12CC[C@@H]3c4ccc(O)cc4CC[C@H]3[C@@H]1C/C(=C\c1ccncc1)[C@@H]2O	13.8 µM
O=C(Oc1cc(=O)c(OC(=O)c2ccccc2)co1)c1ccccc1	> 100 µM
O=C(Cc1ccccc1)NN1C(=O)/C(=C\c2ccccc2)SC1=Nc1ccccc1	> 100 µM

test system: SW-620 colon; test: inhibition of tumour cell growth, NCI panel, 48 h

Structure (SMILES)	TGI
Cn1ccnc1C(O)(c1nccn1C)c1nccn1C	> 100 µM
CC12CCC3C(CCC4CC(OC(=O)Cc5ccc(N(CCCl)CCCl)cc5)CCC43C)C1CCC(=O)N2 (configuration not stated)	27.8 µM
CCN(CC)CCCNC(=O)c1ccc([N+](=O)[O-])cc1O	> 100 µM
CN(Cc1ccccc1)c1cc(=O)n(C)c(=O)[nH]1	> 100 µM
Cc1cn([C@@H]2C[C@H](CO)[C@@H](O)C2)c(=O)[nH]c1=O	> 100 µM
C=Cc1ccc(C)[n+](C[Si](C)(C)O[Si](C)(C)C[n+]2cc(C=C)ccc2C)c1	> 100 µM
Oc1[nH]c2ccc(Br)cc2c1N=NC(=S)Nc1ccc(F)cc1	40.2 µM
O=c1[nH]cnc(NC2C=C(CO)C(O)C2O)c1[N+](=O)[O-] (configuration not stated)	> 62 µM
CCOC(=O)C1(C(=O)OCC)COS(=O)OC1	36.1 µM
O=C(NC(COC(=O)C(Cc1ccccc1)NC(=O)c1ccccc1)Cc1ccccc1)c1ccccc1 (configuration not stated)	> 50 µM
CC(=O)OCC1OC(n2cc(I)c(=O)[nH]c2=O)C(OC(C)=O)C(OC(C)=O)C1OC(C)=O (configuration not stated)	> 100 µM
CC(O)CCCOC(c1ccccc1)(c1ccccc1)c1ccccc1 (configuration not stated)	32.3 µM
CC(C(=O)N1C(=O)N(C(=O)C(C)C(O)c2ccccc2)C2CCCCC21)C(O)c1ccccc1 (configuration not stated)	> 100 µM
O=C1NCCS(=O)(=O)N[C@@H](CC2=CC=CCC2)C(=O)N2CCCC12 (some centres not stated)	> 100 µM
CC(C)=CCC/C(C)=C/COC(C)(C)C1=CCC(C)CC1 (configuration not stated) (tested in a mixture with another compound)	> 100 µM
O=[N+]([O-])c1ccc(/C=C/c2cc(-c3ccccc3)nc3ccc4ccccc4c23)cc1	> 100 µM
Cc1cc(-c2nc3ccccc3s2)ccc1NC(=O)[C@@H](N)CCCCN	25.3 µM
CCCCn1cnc2c(c(CC#N)nn2-c2ccccc2)c1=N	> 100 µM
COc1ccc(-c2oc(/C=N/NC(N)=S)c([N+](=O)[O-])c2-c2ccc(OC)c(OC)c2)cc1OC	> 100 µM
CCN1CCCC(NCc2c3ccccc3c(CNC3CCCN(CC)C3)c3ccccc23)C1 (configuration not stated)	29.4 µM
COc1c(O)c2c3c(c(C)cc(O)c3c1O)C(=O)C(O)(C(C)(C)C(C)=O)C2=O (configuration not stated)	> 100 µM
Nc1nc(N)c(N=O)c(Nc2ccc(Br)cc2)n1	> 100 µM
O=C(CNc1c(Cl)cccc1Cl)NC1C=Cc2ccc(S(=O)(=O)Nc3c(Cl)cccc3Cl)cc2C1=O (configuration not stated)	> 100 µM
C[C@]12CC[C@@H]3c4ccc(O)cc4CC[C@H]3[C@@H]1C/C(=C\c1ccncc1)[C@@H]2O	> 100 µM
S=C(/N=c1\sc(Nc2ccc(Cl)cc2)nc2sc3c(c12)CCN(N1CCc2c(sc4nc(Nc5ccc(Cl)cc5)s/c(=N\C(=S)Nc5ccc(Cl)cc5)c24)C1)C3)Nc1ccc(Cl)cc1	> 100 µM
O=C(Oc1cc(=O)c(OC(=O)c2ccccc2)co1)c1ccccc1	> 100 µM
CCC1=CC2CN3Cn4c(c(COCc5c6n(c7ccccc57)CN5CC7C=C(CC)C5C6(C(=O)OC)C7)c5ccccc54)C(C(=O)OC)(C2)C13	> 100 µM
O=C(Cc1ccccc1)NN1C(=O)/C(=C\c2ccccc2)SC1=Nc1ccccc1	> 100 µM
COc1ccc(CC2c3c(cc(OC)c(OC)c3OC)CCN2C)cc1OC (configuration not stated)	> 100 µM

test system: KM12 colon; test: inhibition of tumour cell growth, NCI panel, 48 h

Structure (SMILES)	TGI
Cn1ccnc1C(O)(c1nccn1C)c1nccn1C	> 100 µM
CC12CCC3C(CCC4CC(OC(=O)Cc5ccc(N(CCCl)CCCl)cc5)CCC43C)C1CCC(=O)N2 (configuration not stated)	32.1 µM
CCN(CC)CCCNC(=O)c1ccc([N+](=O)[O-])cc1O	> 100 µM
COc1cc2c(cc1OC)[C@H]1CN3CCC[C@H]3C=C1c1ccc(OC)c(O)c1-2	0.00183 µM
Cc1cn([C@@H]2C[C@H](CO)[C@@H](O)C2)c(=O)[nH]c1=O	> 100 µM
C=Cc1ccc(C)[n+](C[Si](C)(C)O[Si](C)(C)C[n+]2cc(C=C)ccc2C)c1	> 100 µM
Oc1[nH]c2ccc(Br)cc2c1N=NC(=S)Nc1ccc(F)cc1	30.5 µM
O=c1[nH]cnc(NC2C=C(CO)C(O)C2O)c1[N+](=O)[O-] (configuration not stated)	> 100 µM
CCOC(=O)C1(C(=O)OCC)COS(=O)OC1	> 100 µM
O=C(NC(COC(=O)C(Cc1ccccc1)NC(=O)c1ccccc1)Cc1ccccc1)c1ccccc1 (configuration not stated)	> 50 µM
CC(=O)OCC1OC(n2cc(I)c(=O)[nH]c2=O)C(OC(C)=O)C(OC(C)=O)C1OC(C)=O (configuration not stated)	> 100 µM
CC(O)CCCOC(c1ccccc1)(c1ccccc1)c1ccccc1 (configuration not stated)	27.8 µM
Cc1ccc([N+](=O)[O-])cc1N=NC(=O)NNc1cc([N+](=O)[O-])ccc1C	49.3 µM
CC(C(=O)N1C(=O)N(C(=O)C(C)C(O)c2ccccc2)C2CCCCC21)C(O)c1ccccc1 (configuration not stated)	> 100 µM
O=C1NCCS(=O)(=O)N[C@@H](CC2=CC=CCC2)C(=O)N2CCCC12 (some centres not stated)	> 100 µM
CC(C)=CCC/C(C)=C/COC(C)(C)C1=CCC(C)CC1 (configuration not stated) (tested in a mixture with another compound)	> 100 µM
O=[N+]([O-])c1ccc(/C=C/c2cc(-c3ccccc3)nc3ccc4ccccc4c23)cc1	> 100 µM
Cc1cc(-c2nc3ccccc3s2)ccc1NC(=O)[C@@H](N)CCCCN	8.03 µM
CCCCn1cnc2c(c(CC#N)nn2-c2ccccc2)c1=N	> 100 µM
CCN1CCCC(NCc2c3ccccc3c(CNC3CCCN(CC)C3)c3ccccc23)C1 (configuration not stated)	31.9 µM
COc1c(O)c2c3c(c(C)cc(O)c3c1O)C(=O)C(O)(C(C)(C)C(C)=O)C2=O (configuration not stated)	> 100 µM
Nc1nc(N)c(N=O)c(Nc2ccc(Br)cc2)n1	> 100 µM
O=C(CNc1c(Cl)cccc1Cl)NC1C=Cc2ccc(S(=O)(=O)Nc3c(Cl)cccc3Cl)cc2C1=O (configuration not stated)	> 100 µM
C[C@]12CC[C@@H]3c4ccc(O)cc4CC[C@H]3[C@@H]1C/C(=C\c1ccncc1)[C@@H]2O	62.2 µM
O=C(Oc1cc(=O)c(OC(=O)c2ccccc2)co1)c1ccccc1	> 100 µM
CCC1=CC2CN3Cn4c(c(COCc5c6n(c7ccccc57)CN5CC7C=C(CC)C5C6(C(=O)OC)C7)c5ccccc54)C(C(=O)OC)(C2)C13	> 100 µM
O=C(Cc1ccccc1)NN1C(=O)/C(=C\c2ccccc2)SC1=Nc1ccccc1	> 100 µM
COc1ccc(CC2c3c(cc(OC)c(OC)c3OC)CCN2C)cc1OC (configuration not stated)	> 100 µM

test system: LOX IMVI melanoma; test: inhibition of tumour cell growth, NCI panel, 48 h

Structure (SMILES)	TGI
Cn1ccnc1C(O)(c1nccn1C)c1nccn1C	> 100 µM
CCN(CC)CCCNC(=O)c1ccc([N+](=O)[O-])cc1O	> 100 µM
CN(Cc1ccccc1)c1cc(=O)n(C)c(=O)[nH]1	> 100 µM
COc1cc2c(cc1OC)[C@H]1CN3CCC[C@H]3C=C1c1ccc(OC)c(O)c1-2	0.000604 µM
Cc1cn([C@@H]2C[C@H](CO)[C@@H](O)C2)c(=O)[nH]c1=O	> 100 µM
C=Cc1ccc(C)[n+](C[Si](C)(C)O[Si](C)(C)C[n+]2cc(C=C)ccc2C)c1	> 100 µM
Oc1[nH]c2ccc(Br)cc2c1N=NC(=S)Nc1ccc(F)cc1	27.1 µM
O=c1[nH]cnc(NC2C=C(CO)C(O)C2O)c1[N+](=O)[O-] (configuration not stated)	> 59.6 µM
CCOC(=O)C1(C(=O)OCC)COS(=O)OC1	28.4 µM
CC(=O)OCC1OC(n2cc(I)c(=O)[nH]c2=O)C(OC(C)=O)C(OC(C)=O)C1OC(C)=O (configuration not stated)	> 100 µM
CC(O)CCCOC(c1ccccc1)(c1ccccc1)c1ccccc1 (configuration not stated)	30.4 µM
CC(C(=O)N1C(=O)N(C(=O)C(C)C(O)c2ccccc2)C2CCCCC21)C(O)c1ccccc1 (configuration not stated)	> 100 µM
O=C1NCCS(=O)(=O)N[C@@H](CC2=CC=CCC2)C(=O)N2CCCC12 (some centres not stated)	> 100 µM
O=[N+]([O-])c1ccc(/C=C/c2cc(-c3ccccc3)nc3ccc4ccccc4c23)cc1	> 100 µM
Cc1cc(-c2nc3ccccc3s2)ccc1NC(=O)[C@@H](N)CCCCN	5.92 µM
CCCCn1cnc2c(c(CC#N)nn2-c2ccccc2)c1=N	> 100 µM
COc1ccc(-c2oc(/C=N/NC(N)=S)c([N+](=O)[O-])c2-c2ccc(OC)c(OC)c2)cc1OC	66 µM

— PubChem BioAssay (NCI)
